Results reported in ChEMBL document CHEMBL1150196, “Isolation and structure of cytostatic steroidal saponins from the African medicinal plant Balanites aegyptica” (1991).
Converted amounts (≈) assume the structure as drawn.

Each molecule was assayed on P388 (assay: Cytotoxicity against mouse P388 cells). Conditions: read-out: ED50 (the source's name).
Format: functional

SMILES | EC50 [µg/mL]
C[C@H]1CC[C@@]2(OC1)O[C@H]1C[C@H]3[C@@H]4CC=C5C[C@@H](O[C@@H]6O[C@H](CO)[C@@H](O[C@@H]7O[C@H](CO)[C@@H](O)[C@H](O)[C@H]7O)[C@H](O)[C@H]6O[C@@H]6O[C@@H](C)[C@H](O)[C@@H](O)[C@H]6O)CC[C@]5(C)[C@H]4CC[C@]3(C)[C@H]1[C@@H]2C [BALANITIN 6] | 0.21 (≈ 0.237 µM)
C[C@H]1CC[C@@]2(OC1)O[C@H]1C[C@H]3[C@@H]4CC=C5C[C@@H](O[C@@H]6O[C@H](CO)[C@@H](O[C@@H]7O[C@H](CO)[C@@H](O)[C@H](O[C@@H]8OC[C@@H](O)[C@H](O)[C@H]8O)[C@H]7O)[C@H](O)[C@H]6O[C@@H]6O[C@@H](C)[C@H](O)[C@@H](O)[C@H]6O)CC[C@]5(C)[C@H]4CC[C@]3(C)[C@H]1[C@@H]2C [BALANITIN 7] | 0.22 (≈ 0.216 µM)
C[C@H]1CC[C@@]2(OC1)O[C@H]1C[C@H]3[C@@H]4CC=C5C[C@@H](O[C@@H]6O[C@H](CO)[C@@H](O[C@@H]7O[C@H](CO)[C@@H](O)[C@H](O[C@@H]8O[C@@H](C)[C@H](O)[C@@H](O)[C@H]8O)[C@H]7O)[C@H](O)[C@H]6O[C@@H]6O[C@@H](C)[C@H](O)[C@@H](O)[C@H]6O)CC[C@]5(C)[C@H]4CC[C@]3(C)[C@H]1[C@@H]2C [BALANITIN 5] | 2.4 (≈ 2.33 µM)
O=c1[nH]cc(F)c(=O)[nH]1 [FLUOROURACIL] | 0.08 (≈ 0.615 µM)
C[C@H]1CC[C@@]2(OC1)O[C@H]1C[C@H]3[C@@H]4CC=C5C[C@@H](O[C@@H]6O[C@H](CO)[C@@H](O[C@@H]7O[C@H](CO)[C@@H](O)[C@H](O[C@@H]8O[C@H](CO)[C@@H](O)[C@H](O)[C@H]8O)[C@H]7O)[C@H](O)[C@H]6O[C@@H]6O[C@@H](C)[C@H](O)[C@@H](O)[C@H]6O)CC[C@]5(C)[C@H]4CC[C@]3(C)[C@H]1[C@@H]2C [BALANITIN 4] | 0.41 (≈ 0.392 µM)
